Measured values as given in ChEMBL document CHEMBL4190314, “Quinoline hybrids and their antiplasmodial and antimalarial activities” (Eur J Med Chem, 2017).

tested on: Plasmodium falciparum; assay: Antimalarial activity against Plasmodium falciparum 3D7 infected in human erythrocytes after 72 hrs by SYBR Green-1 staining based fluorescence assay; format: functional, organism-based; conditions: 3D7, 72 h

| Structure (SMILES) | IC50 [nM] |
| --- | --- |
| C=C[C@H]1CN2CC[C@H]1C[C@H]2[C@H](OC(=O)[C@H](CCCCNC(=O)OCc1ccccc1)NC(=O)OCc1ccccc1)c1ccnc2ccc(OC)cc12 | < 100 |
| C=C[C@H]1CN2CC[C@H]1C[C@H]2[C@H](OC(=O)[C@H](Cc1cn(S(=O)(=O)c2ccc(C)cc2)cn1)NC(=O)OC(C)(C)C)c1ccnc2ccc(OC)cc12 | < 100 |
| C=C[C@H]1CN2CC[C@H]1C[C@H]2[C@H](OC(=O)[C@H](C)NC(=O)OC(C)(C)C)c1ccnc2ccc(OC)cc12 | < 100 |
| C=C[C@H]1CN2CC[C@H]1C[C@H]2[C@H](OC(=O)CNC(=O)[C@@H](NC(=O)OCc1ccccc1)[C@@H](C)CC)c1ccnc2ccc(OC)cc12 | < 100 |
| C=C[C@H]1CN2CC[C@H]1C[C@H]2[C@H](OC(=O)[C@@H](CSCc1ccccc1)NC(=O)OCc1ccccc1)c1ccnc2ccc(OC)cc12 | < 100 |
| C=C[C@H]1CN2CC[C@H]1C[C@H]2[C@H](OC(=O)CNC(=O)OC(C)(C)C)c1ccnc2ccc(OC)cc12 | < 100 |
| C=C[C@H]1CN2CC[C@H]1C[C@H]2[C@H](OC(=O)[C@H](C)NC(=O)[C@H](Cc1ccccc1)NC(=O)CNC(=O)OCc1ccccc1)c1ccnc2ccc(OC)cc12 | < 100 |
| C=C[C@H]1CN2CC[C@H]1C[C@H]2[C@H](OC(=O)[C@H](COCc1ccccc1)NC(=O)OC(C)(C)C)c1ccnc2ccc(OC)cc12 | < 100 |
| C=C[C@H]1CN2CC[C@H]1C[C@H]2[C@H](OC(=O)[C@H](Cc1ccccc1)NC(=O)OC(C)(C)C)c1ccnc2ccc(OC)cc12 | < 100 |
| C=C[C@H]1CN2CC[C@H]1C[C@H]2[C@H](OC(=O)[C@H](CCC(=O)OCc1ccccc1)NC(=O)OC(C)(C)C)c1ccnc2ccc(OC)cc12 | < 100 |
| C=C[C@H]1CN2CC[C@H]1C[C@H]2[C@H](OC(=O)[C@H](CC(=O)OCc1ccccc1)NC(=O)OCc1ccccc1)c1ccnc2ccc(OC)cc12 | 17 |
| C=C[C@H]1CN2CC[C@H]1C[C@H]2[C@H](O)c1ccnc2ccc(OC)cc12 [QUININE] | 18 |

tested on: Plasmodium falciparum; assay: Antimalarial activity against chloroquine-sensitive Plasmodium falciparum 3D7 infected in human erythrocytes after 72 hrs by SYBR Green-1 staining based fluorescence assay; format: functional, organism-based; conditions: 3D7, 72 h

| Structure (SMILES) | IC50 [nM] |
| --- | --- |
| C=C[C@H]1CN2CC[C@H]1C[C@H]2[C@H](OC(=O)[C@H](CC(C)C)NC(=O)c1cn(CC)c2nc(C)ccc2c1=O)c1ccnc2ccc(OC)cc12 | 12 to 207 |
| C=C[C@H]1CN2CC[C@H]1C[C@H]2[C@H](OC(=O)[C@H](C)NC(=O)c1cn2c3c(c(N4CCN(C)CC4)c(F)cc3c1=O)OC[C@@H]2C)c1ccnc2ccc(OC)cc12 | 12 |
| C=C[C@H]1CN2CC[C@H]1C[C@H]2[C@H](OC(=O)CNC(=O)c1cn(CC)c2nc(C)ccc2c1=O)c1ccnc2ccc(OC)cc12 | 12 to 207 |

tested on: Plasmodium falciparum; assay: Antimalarial activity against synchronous culture of Plasmodium falciparum W2 ring stage infected in human erythrocytes after 48 hrs by flow cytometry; format: functional, organism-based; conditions: W2, 48 h

| Structure (SMILES) | IC50 [nM] |
| --- | --- |
| O=C(/C=C/c1ccccc1)NCCCCNc1ccnc2cc(Cl)ccc12 | 11 to 59 |
| Cc1ccc(/C=C/C(=O)NCCCCNc2ccnc3cc(Cl)ccc23)cc1 | 11 to 59 |
| CC(C)c1ccc(/C=C/C(=O)NCCCCNc2ccnc3cc(Cl)ccc23)cc1 | 11 to 59 |
| COc1ccc(/C=C/C(=O)NCCCCNc2ccnc3cc(Cl)ccc23)cc1 | 11 to 59 |
| Nc1ccc(/C=C/C(=O)NCCCCNc2ccnc3cc(Cl)ccc23)cc1 | 11 to 59 |
| O=C(/C=C/c1cccc(F)c1)NCCCCNc1ccnc2cc(Cl)ccc12 | 11 to 59 |
| O=C(/C=C/c1ccc(F)cc1)NCCCCNc1ccnc2cc(Cl)ccc12 | 11 to 59 |
| O=C(/C=C/c1ccc(Cl)cc1)NCCCCNc1ccnc2cc(Cl)ccc12 | 11 to 59 |
| O=C(/C=C/c1ccc(Br)cc1)NCCCCNc1ccnc2cc(Cl)ccc12 | 11 to 59 |
| O=C(/C=C/c1ccccc1[N+](=O)[O-])NCCCCNc1ccnc2cc(Cl)ccc12 | 11 to 59 |
| O=C(/C=C/c1cccc([N+](=O)[O-])c1)NCCCCNc1ccnc2cc(Cl)ccc12 | 11 to 59 |
| O=C(/C=C/c1ccc([N+](=O)[O-])cc1)NCCCCNc1ccnc2cc(Cl)ccc12 | 11 to 59 |
| CN(C)c1ccc(/C=C/C(=O)NCCCCNc2ccnc3cc(Cl)ccc23)cc1 | 11 to 59 |
| COc1ccc(/C=C/C(=O)NCCCCNc2ccnc3cc(Cl)ccc23)cc1OC | 11 to 59 |
